target: T1, Human plasma kallikrein (Homo sapiens, UniProt P03952); assay: Kallikrein Assay (fluorogenic substrate hydrolysis, AFC release); format: biochemical; details: purified Human plasma kallikrein 0.5 nM; substrate Acetyl-K—P—R-AFC 100 mM; 50 mM HEPES pH 7.4
T1 construct: yields a heavy chain (371 amino acids) and a light chain (248 amino acids); purchased Enzyme Research Laboratories
Protocol: The effectiveness of a compound of the present invention as an inhibitor of Kallikrein can be determined using a relevant purified serine protease, and an appropriate synthetic substrate. The rate of hydrolysis of the chromogenic or fluorogenic substrate by the relevant serine protease was measured both in the absence and presence of compounds of the present invention. Assays were conducted at room temperature or at 37° C. […] A decrease in the rate of fluorescence change in the presence of inhibitor is indicative of enzyme inhibition. Such methods are known to one skilled in the art. The results of this assay are expressed as the half-maximal inhibitory concentrations (IC50), or the inhibitory constant, Ki.
Kallikrein determinations were made in 50 mM HEPES buffer at pH 7.4 containing 150 mM NaCl, 5 mM CaCl2), and 0.1% PEG 8000 (polyethylene glycol; Fisher Scientific). Determinations were made using purified Human plasma kallikrein at a final concentration of 0.5 nM (Enzyme Research Laboratories) and the synthetic substrate, Acetyl-K—P—R-AFC (Sigma #C6608) at a concentration of […].
Activity assays were performed by diluting a stock solution of substrate at least tenfold to a final concentration ≤0.2 Km into a solution containing enzyme or enzyme equilibrated with inhibitor. Times required to achieve equilibration between enzyme and inhibitor were determined in control experiments. The reactions were performed under linear progress curve conditions and fluorescence increase measured at 405 Ex/510 Em nm. Values were converted to percent inhibition of the control reaction (after subtracting 100% Inhibition value). IC50 was determined by inflection point from a four parameter logistic curve fit. Ki was calculated using the Cheng Prusoff equation, Ki=IC50/(1+([S]/Km)).

T1 sequence (P03952 391-638 limits assumed): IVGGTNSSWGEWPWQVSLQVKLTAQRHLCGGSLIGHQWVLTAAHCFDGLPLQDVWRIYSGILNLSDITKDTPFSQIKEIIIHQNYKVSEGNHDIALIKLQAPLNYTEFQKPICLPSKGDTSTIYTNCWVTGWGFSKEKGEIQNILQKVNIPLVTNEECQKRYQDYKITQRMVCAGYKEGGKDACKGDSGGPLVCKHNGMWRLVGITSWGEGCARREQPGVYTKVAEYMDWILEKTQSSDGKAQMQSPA
T1 sequence (P03952 20-390 partner limits assumed): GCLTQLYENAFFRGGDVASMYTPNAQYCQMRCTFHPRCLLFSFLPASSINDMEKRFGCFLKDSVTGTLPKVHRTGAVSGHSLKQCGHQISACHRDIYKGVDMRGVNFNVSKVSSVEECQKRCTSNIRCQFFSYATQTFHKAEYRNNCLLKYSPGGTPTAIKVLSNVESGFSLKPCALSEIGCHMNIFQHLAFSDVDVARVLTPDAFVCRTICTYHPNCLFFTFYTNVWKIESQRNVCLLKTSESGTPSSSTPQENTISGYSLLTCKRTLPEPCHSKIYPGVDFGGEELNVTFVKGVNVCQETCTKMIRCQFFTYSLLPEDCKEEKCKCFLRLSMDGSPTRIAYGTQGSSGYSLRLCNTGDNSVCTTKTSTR

Compound	IC50 [nM]
Cc1cc(N2C[C@H]3C[C@H]3C2=O)cnc1C(C)n1cc(C(=O)N[C@H]2C[C@@H](c3cc(Cl)ccc3C#N)C2)cn1 (single isomer, unassigned) [Example 24, N-((cis)-3-(5-chloro-2-cyanophenyl)cyclobutyl)-1-((R or S)-1-(3-methyl-5-((1R,5S)-2-oxo-3-azabicyclo[3.1.0]hexan-3-yl)pyridin-2-yl)ethyl)-1H-pyrazole-4-carboxamide]	5.1
Cc1cc(N2C[C@H]3C[C@H]3C2=O)cnc1C(C)n1cc(C(=O)N[C@H]2C[C@@H](c3cc(Cl)ccc3C#N)C2)cn1 (single isomer, unassigned) [Example 25, N-((cis)-3-(5-chloro-2-cyanophenyl)cyclobutyl)-1-((S or R)-1-(3-methyl-5-((1R,5S)-2-oxo-3-azabicyclo[3.1.0]hexan-3-yl)pyridin-2-yl)ethyl)-1H-pyrazole-4-carboxamide]	25.3
CC(c1ncc(N2C[C@H]3C[C@H]3C2=O)cc1F)n1cc(C(=O)N[C@H]2C[C@@H](c3cc(Cl)ccc3C#N)C2)cn1 (single isomer, unassigned) [Example 26, N-((cis)-3-(5-chloro-2-cyanophenyl)cyclobutyl)-1-((R or S)-1-(3-fluoro-5-((1R,5S)-2-oxo-3-azabicyclo[3.1.0]hexan-3-yl)pyridin-2-yl)ethyl)-1H-pyrazole-4-carboxamide]	3.7
CC(c1ncc(N2C[C@H]3C[C@H]3C2=O)cc1F)n1cc(C(=O)N[C@H]2C[C@@H](c3cc(Cl)ccc3C#N)C2)cn1 (single isomer, unassigned) [Example 27, N-((cis)-3-(5-chloro-2-cyanophenyl)cyclobutyl)-1-((S or R)-1-(3-fluoro-5-((1R,5S)-2-oxo-3-azabicyclo[3.1.0]hexan-3-yl)pyridin-2-yl)ethyl)-1H-pyrazole-4-carboxamide]	18.6
Cc1c(C(C)n2cc(C(=O)N[C@H]3C[C@@H](c4cc(Cl)ccc4C#N)C3)cn2)cnc(N2C[C@H]3C[C@H]3C2=O)c1F (single isomer, unassigned) [Example 28, N-((cis)-3-(5-chloro-2-cyanophenyl)cyclobutyl)-1-((R or S)-1-(5-fluoro-4-methyl-6-((1R,5S)-2-oxo-3-azabicyclo[3.1.0]hexan-3-yl)pyridin-3-yl)ethyl)-1H-pyrazole-4-carboxamide]	0.2
Cc1c(C(C)n2cc(C(=O)N[C@H]3C[C@@H](c4cc(Cl)ccc4C#N)C3)cn2)cnc(N2C[C@H]3C[C@H]3C2=O)c1F (single isomer, unassigned) [Example 29, N-((cis)-3-(5-chloro-2-cyanophenyl)cyclobutyl)-1-((S or R)-1-(5-fluoro-4-methyl-6-((1R,5S)-2-oxo-3-azabicyclo[3.1.0]hexan-3-yl)pyridin-3-yl)ethyl)-1H-pyrazole-4-carboxamide]	1.6
Cc1cc(C(C)n2cc(C(=O)N[C@H]3C[C@@H](c4cc(Cl)ccc4C#N)C3)cn2)nnc1N1C[C@H]2C[C@H]2C1=O (single isomer, unassigned) [Example 30, N-((cis)-3-(5-chloro-2-cyanophenyl)cyclobutyl)-1-((R or S)-1-(5-methyl-6-((1R,5S)-2-oxo-3-azabicyclo[3.1.0]hexan-3-yl)pyridazin-3-yl)ethyl)-1H-pyrazole-4-carboxamide]	2.4
Cc1cc(C(C)n2cc(C(=O)N[C@H]3C[C@@H](c4cc(Cl)ccc4C#N)C3)cn2)nnc1N1C[C@H]2C[C@H]2C1=O (single isomer, unassigned) [Example 31, N-((cis)-3-(5-chloro-2-cyanophenyl)cyclobutyl)-1-((S or R)-1-(5-methyl-6-((1R,5S)-2-oxo-3-azabicyclo[3.1.0]hexan-3-yl)pyridazin-3-yl)ethyl)-1H-pyrazole-4-carboxamide]	7.3
Cc1ccnc([C@H]2C[C@@H](NC(=O)c3cnn(C(C)c4cnc(N5C[C@H]6C[C@H]6C5=O)cc4C)c3)C2)c1 (single isomer, unassigned) [Example 32, 1-((R or S)-1-(4-methyl-6-((1R,5S)-2-oxo-3-azabicyclo[3.1.0]hexan-3-yl)pyridin-3-yl)ethyl)-N-((cis)-3-(4-methylpyridin-2-yl)cyclobutyl)-1H-pyrazole-4-carboxamide]	11.1
Cc1ccnc([C@H]2C[C@@H](NC(=O)c3cnn(C(C)c4cnc(N5C[C@H]6C[C@H]6C5=O)cc4C)c3)C2)c1 (single isomer, unassigned) [Example 33, 1-((S or R)-1-(4-methyl-6-((1R,5S)-2-oxo-3-azabicyclo[3.1.0]hexan-3-yl)pyridin-3-yl)ethyl)-N-((cis)-3-(4-methylpyridin-2-yl)cyclobutyl)-1H-pyrazole-4-carboxamide]	84.4
Cc1cc(N2C[C@H]3C[C@H]3C2=O)ncc1C(C)n1cc(C(=O)N[C@H]2C[C@@H](c3cc(F)ccc3C#N)C2)cn1 (single isomer, unassigned) [Example 34, N-((cis)-3-(2-cyano-5-fluorophenyl)cyclobutyl)-1-((R or S)-1-(4-methyl-6-((1R,5S)-2-oxo-3-azabicyclo[3.1.0]hexan-3-yl)pyridin-3-yl)ethyl)-1H-pyrazole-4-carboxamide]	5.1
Cc1cc(N2C[C@H]3C[C@H]3C2=O)ncc1C(C)n1cc(C(=O)N[C@H]2C[C@@H](c3cc(F)ccc3C#N)C2)cn1 (single isomer, unassigned) [Example 35, N-((cis)-3-(2-cyano-5-fluorophenyl)cyclobutyl)-1-((S or R)-1-(4-methyl-6-((1R,5S)-2-oxo-3-azabicyclo[3.1.0]hexan-3-yl)pyridin-3-yl)ethyl)-1H-pyrazole-4-carboxamide]	102
Cc1ccc(C#N)c([C@H]2C[C@@H](NC(=O)c3cnn(C(C)c4cnc(N5C[C@H]6C[C@H]6C5=O)cc4C)c3)C2)c1 (single isomer, unassigned) [Example 36, N-((cis)-3-(2-cyano-5-methylphenyl)cyclobutyl)-1-((R or S)-1-(4-methyl-6-((1R,5S)-2-oxo-3-azabicyclo[3.1.0]hexan-3-yl)pyridin-3-yl)ethyl)-1H-pyrazole-4-carboxamide]	1.1
Cc1c(C(C)n2cc(C(=O)N[C@H]3C[C@@H](c4cc(Cl)ccc4C#N)C3)cn2)cnc(N2C[C@H]3C[C@H]3C2=O)c1C (single isomer, unassigned) [Example 39, N-((cis)-3-(5-chloro-2-cyanophenyl)cyclobutyl)-1-((R or S)-1-(4,5-dimethyl-6-((1R,5S)-2-oxo-3-azabicyclo[3.1.0]hexan-3-yl)pyridin-3-yl)ethyl)-1H-pyrazole-4-carboxamide]	0.3
Cc1c(C(C)n2cc(C(=O)N[C@H]3C[C@@H](c4cc(Cl)ccc4C#N)C3)cn2)cnc(N2C[C@H]3C[C@H]3C2=O)c1C (single isomer, unassigned) [Example 40, N-((cis)-3-(5-chloro-2-cyanophenyl)cyclobutyl)-1-((S or R)-1-(4,5-dimethyl-6-((1R,5S)-2-oxo-3-azabicyclo[3.1.0]hexan-3-yl)pyridin-3-yl)ethyl)-1H-pyrazole-4-carboxamide]	0.7
Cc1c(C(C)n2cc(C(=O)N[C@H]3C[C@@H](c4cc(Cl)ccc4C#N)C3)cn2)nnc(N2C[C@H]3C[C@H]3C2=O)c1C (single isomer, unassigned) [Example 41, N-((cis)-3-(5-chloro-2-cyanophenyl)cyclobutyl)-1-((R or S)-1-(4,5-dimethyl-6-((1R,5S)-2-oxo-3-azabicyclo[3.1.0]hexan-3-yl)pyridazin-3-yl)ethyl)-1H-pyrazole-4-carboxamide]	15.8
Cc1c(C(C)n2cc(C(=O)N[C@H]3C[C@@H](c4cc(Cl)ccc4C#N)C3)cn2)nnc(N2C[C@H]3C[C@H]3C2=O)c1C (single isomer, unassigned) [Example 42, N-((cis)-3-(5-chloro-2-cyanophenyl)cyclobutyl)-1-((S or R)-1-(4,5-dimethyl-6-((1R,5S)-2-oxo-3-azabicyclo[3.1.0]hexan-3-yl)pyridazin-3-yl)ethyl)-1H-pyrazole-4-carboxamide]	0.3
COc1c(N2C[C@H]3C[C@H]3C2=O)ncc(C(C)n2cc(C(=O)N[C@H]3C[C@@H](c4cc(Cl)ccc4C#N)C3)cn2)c1C (single isomer, unassigned) [Example 43, N-((cis)-3-(5-chloro-2-cyanophenyl)cyclobutyl)-1-((R or S)-1-(5-methoxy-4-methyl-6-((1R,5S)-2-oxo-3-azabicyclo[3.1.0]hexan-3-yl)pyridin-3-yl)ethyl)-1H-pyrazole-4-carboxamide]	1.8
COc1c(N2C[C@H]3C[C@H]3C2=O)ncc(C(C)n2cc(C(=O)N[C@H]3C[C@@H](c4cc(Cl)ccc4C#N)C3)cn2)c1C (single isomer, unassigned) [Example 44, N-((cis)-3-(5-chloro-2-cyanophenyl)cyclobutyl)-1-((S or R)-1-(5-methoxy-4-methyl-6-((1R,5S)-2-oxo-3-azabicyclo[3.1.0]hexan-3-yl)pyridin-3-yl)ethyl)-1H-pyrazole-4-carboxamide]	0.2
